Key:
[1] = biological target: T1, human LXR (Homo sapiens, UniProt Q13133); experiment: Reporter gene assay for activation of LXRα in transfected cos-7 cells; format: cell-based
T1 construct: expressed in transfected cells; host or cells: cos-7 cells (ECACC No. 87021302)
T1 sequence (Q13133 1-447): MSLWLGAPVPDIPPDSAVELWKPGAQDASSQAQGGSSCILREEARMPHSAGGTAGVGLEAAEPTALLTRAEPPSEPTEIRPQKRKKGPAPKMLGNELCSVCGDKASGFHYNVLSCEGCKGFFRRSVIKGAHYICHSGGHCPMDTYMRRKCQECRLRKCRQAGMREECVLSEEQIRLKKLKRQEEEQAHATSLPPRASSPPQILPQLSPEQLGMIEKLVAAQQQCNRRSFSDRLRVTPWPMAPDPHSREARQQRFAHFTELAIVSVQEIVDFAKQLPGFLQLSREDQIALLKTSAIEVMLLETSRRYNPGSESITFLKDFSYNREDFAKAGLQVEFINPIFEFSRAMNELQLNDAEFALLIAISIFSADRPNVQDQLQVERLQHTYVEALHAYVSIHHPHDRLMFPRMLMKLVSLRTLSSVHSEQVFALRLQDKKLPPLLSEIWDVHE
T1 sequence (P19793 1-462 partner): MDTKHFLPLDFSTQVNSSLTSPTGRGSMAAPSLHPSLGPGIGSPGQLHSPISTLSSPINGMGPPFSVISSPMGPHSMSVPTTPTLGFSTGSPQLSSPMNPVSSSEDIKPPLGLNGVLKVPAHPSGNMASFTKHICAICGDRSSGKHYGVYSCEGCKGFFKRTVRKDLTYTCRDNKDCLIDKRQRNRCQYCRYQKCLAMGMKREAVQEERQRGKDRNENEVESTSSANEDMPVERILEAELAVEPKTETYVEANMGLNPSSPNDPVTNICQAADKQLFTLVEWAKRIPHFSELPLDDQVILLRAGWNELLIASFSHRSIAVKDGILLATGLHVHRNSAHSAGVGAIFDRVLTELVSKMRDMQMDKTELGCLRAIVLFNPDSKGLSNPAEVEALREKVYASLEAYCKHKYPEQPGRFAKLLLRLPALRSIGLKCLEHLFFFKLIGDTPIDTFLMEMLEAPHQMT
Method: The activation of LXRα has been determined by a reporter gene assay based on that described by Kliewer et al (Nature 358 771-774 1992). Wherein cos-7 cells (ECACC No. 87021302) were seeded in 24-well plates at a density of 5×10^4 cells/well. Cells were grown overnight at 37° C./5% CO2 in DMEM containing 10% FCS, 2mM L-glutamine, […] penicillin and 100 µg/ml streptomycin.
A commerically available vector-pNFκB-Luc (Clontech) was used as the basic reporter plasmid as it contained the firefly luciferase gene downstream of the thymidine kinase promoter element. The NFκB consensus sequence was exised using restriction enzymes Mlu I and Bgl II and replaced with 3 direct repeats of the DNA response element sequence for the LXR nuclear receptor.
The response element was taken from Willy, P. et al (1995)(from a promoter region of the mouse mammary tumour virus), and repeated three times and encorporated restriction enzyme sites for Mlu I and Bgl II at either end to orientate the fragment during cloning (FIG. 5). This long oligonucleotide was synthesised, and an annealing primer designed to allow production of a double-stranded DNA template by Klenow fill-in.
This dsDNA template along with the vector pNFκB-Luc were then cut with both Mlu I and Bgl II restriction enzymes to allow cloning of the insert into this vector. ligation of the insert and vector occurred, followed by heat-shock transformation into a E. coli strain (JM109) followed by selection of recombinants on LB agar+Ampicillin (100 μg/ml). Mini liquid cultures of each colony generated were established and mini-plasmid preparations done (Qiagen protocols followed), furthered by restriction digests to check the size of the recombinant insert.
The pRSV/hRXRα was prepared via the method of Collingwood T N et al. 1997. J Biol Chem. 272: 13060-5. Transformation was performed as described above, and bulk plasmid preparations were performed from 100 ml overnight cultures. The selectable antibiotic for this vector was 100 μg/ml Ampicilin.
Transfection of cells was performed using Lipofectamine (Gibco Brl) as directed by the manufactures. Transfected cells were incubated for 5 h at 37° C./5% CO2 and serum then added to a final concentration of 2%. Cells were then incubated for a further 24 hours in the presence or absence of ligand. After 24 hours cell lysates were prepared and the level of firefly and renilla luciferase determined using the Dual luciferase assay system (Promega) and a MLX microtitre plate luminometer (Dynex).
Cells were washed with transfection media (DMEM) then transiently transfected with 4 plasmids: a LXR-responsive firefly luciferase reporter gene (pLXRE-luc); mammalian expression plasmids (pcDNA3.1/LXR, and pRSV/hRXRα) containing human LXR and RXRα cDNAs respectively and a control plasmid (pRLTK, Promega) which constitutatively expresses the renilla luciferase gene.
Transfected cells were incubated for 5 h at 37°C./5% CO2 and serum then added to a final concentration of 2%. Cells were then incubated for further 24 hours in the presence or absence of ligand. After 24 hours cell lysates were prepared and the level of firefly and renilla luciferase determined using the Dual luciferase assay system (Promega) and a MLX microtitre plate luminometer (Dynex). The level of firefly luciferase (normalised against the renilla luciferase control) provides a measure of reporter gene activity. This in turn reflects the level of LXR activation
The level of firefly luciferase (normalised against the renilla luciferase control) provides a measure of reporter gene activity which in turn reflects the level of LXRα activation.

[2] = test system: filaggrin; experiment: RNA expression analysis of filaggrin in human epidermal cultures (Integriderm array); format: cell-based
Method: Commercially available human epidermal cultures were obtained from Skin Ethic™. The cultures were incubated in DMEM supplemented with guggul sterone (conctri) or vehicle alone (X % ethanol) for X days. Medium was replaced every day.
RNA was then extracted from cultures using the Qaigen RNEasy™ minikit according to manufacturers' instructions. The RNA was than DNAse treated and quantified by measuring OD at 260 & 280 nm with a spectrophotometer.
The level of gene expression was then determined using the Integridenm array from Research Genetics. RNA expression in guggul sterone treated cultures was compared to that in cultures treated with vehicle alone according to manufacturers' instructions broadly detailed below.
To prehybridise, each membrane was placed in a seperate roller bottle with the DNA spotted side facing inwards 5.0 ml MicroHyb (Research Genetics #HYB125.GF) was added to each bottle as well as the blocking agents;
20 ul mastermix was added to each tube containing RNA and oligo dT, and the reaction incubated at […] 42° C. for 90 mins. Bio-Spin 6 columns (Bio-Rad #732-6002) were then used to remove unincorporated nucleotides according to the manufacturer's instructions.
The cDNA was denatured by heating to 99° C. for 3 mins and chilled on ice for 2 mins. Hybridisation was carried out at 42° C. for 16-20 hrs in a rotating oven.
Membranes were washed 4× with ˜30 ml wash 1 solution (2× SSC, 1% SDS) at 50° C. for 20 mins/wash in rotating oven. This was followed by 2 further washes in ˜30 ml wash 2 solution (0.5× SSC, 1% SDS) at 50° C. for 15 mins/wash in a rotating oven.
Images of the membranes were obtained using a phosphorimager (Molecular Dynamics) using a pixel size of 100 u during the scanning. Images were converted to “TIF” files to allow analysis using Pathways™2.01 software (Research Genetics) and spot intensities compared to indicate changes in RNA expression. Each array contains 3 separate spots of filaggrin DNA and the average of all 3 spot intensities was calculated for each array. […]

## CC(C)CC[C@@H](O)[C@@H](C)[C@H]1CC[C@H]2[C@@H]3CC=C4C[C@@H](O)CC[C@]4(C)[C@H]3CC[C@]12C [22R-hydroxycholesterol, reference compound]
[1]; 32 μM, positive control in desmosterol experiment
  Reporter Gene Activity Foloinduction relative to vertical Mean: 4.8
[1]; 35 μM, positive control in cis-guggal sterone experiment
  Reporter Gene Activity Foloinduction relative to vertical Mean: 6
[1]; 50 μM, positive control in cis-guggal sterone experiment
  Reporter Gene Activity Foloinduction relative to vertical Mean: 6.59

## C/C=C1\C(=O)C[C@H]2[C@@H]3CCC4=CC(=O)CC[C@]4(C)[C@H]3CC[C@]12C [Cis-guggal Sterone]
[2]; human epidermal cultures, average of 3 filaggrin spots, normalised against average intensity of all spots
  Spot intensity (filaggrin): 2885
[2]; human epidermal cultures, relative to vehicle
  Changes in the expression relative to vehicle (filaggrin): 1.54 (+/−0.17)
[2]; treatment of epidermal cultures
  filaggrin mRNA levels (in words): elevation of filaggrin mRNA levels
[1]; 16 μM, cos-7 cells, 24 hours with ligand, firefly luciferase normalised against renilla
  Reporter Gene Activity Foloinduction relative to vertical Mean: 3.9
[1]; 32 μM, cos-7 cells, 24 hours with ligand, firefly luciferase normalised against renilla
  Reporter Gene Activity Foloinduction relative to vertical Mean: 8
[1]; 64 μM, cos-7 cells, 24 hours with ligand, firefly luciferase normalised against renilla
  Reporter Gene Activity Foloinduction relative to vertical Mean: 17.3

## CC(C)=CCC[C@@H](C)[C@H]1CC[C@H]2[C@@H]3CC=C4C[C@@H](O)CC[C@]4(C)[C@H]3CC[C@]12C [Desmosterol, cholesta-5,24-dien-3β-ol]
[1]; 26 μM, cos-7 cells, 24 hours with ligand, firefly luciferase normalised against renilla
  Reporter Gene Activity Foloinduction relative to vertical Mean: 9.27
